Measurements from patent publication US6737383B1, “Herbicidal oxadiazolidines” (priority 1999, dated 2004).

What was measured:
sugar beet = test: Test B pre/postemergence sugar beet; format: in vivo, Beta vulgaris
Procedure, shortened: (§1)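 Test chemicals in a non-phytotoxic solvent mixture with surfactant were sprayed preemergence onto planted seeds and postemergence onto plants 2 to 18 cm tall (1- to 4-leaf stage). After twelve to sixteen days in a greenhouse, injury was visually rated against untreated controls from 0 (no effect) to 10 (complete control).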

wild oat = test: Test B pre/postemergence wild oat; format: in vivo, Avena fatua
Procedure, shortened: as §1

rice = test: Test B flood test rice; format: in vivo, Oryza sativa
Procedure, shortened: (§2)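 Plants were grown to the 2-leaf stage before treatment with test chemical, then held in a greenhouse for twelve to sixteen days. Injury was visually rated against untreated controls on a 0–10 scale, where 0 is no effect and 10 is complete control.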

smallflower flatsedge = test: Test B flood test smallflower flatsedge; format: in vivo, Cyperus difformis
Procedure, shortened: as §2

rape = test: Test B pre/postemergence rape; format: in vivo, Brassica napus
Procedure, shortened: as §1

pigweed = test: Test B pre/postemergence pigweed; format: in vivo, Amaranthus retroflexus
Procedure, shortened: as §1

velvetleaf = test: Test B pre/postemergence velvetleaf; format: in vivo, Abutilon theophrasti
Procedure, shortened: as §1

giant foxtail = test: Test B pre/postemergence giant foxtail; format: in vivo, Setaria faberii
Procedure, shortened: as §1

crabgrass = test: Test B pre/postemergence crabgrass; format: in vivo, Digitaria sanguinalis
Procedure, shortened: as §1

cocklebur = test: Test B pre/postemergence cocklebur; format: in vivo, Xanthium strumarium
Procedure, shortened: as §1

wheat = test: Test B pre/postemergence wheat; format: in vivo, Triticum aestivum
Procedure, shortened: as §1

bedstraw = test: Test B pre/postemergence bedstraw; format: in vivo, Galium aparine
Procedure, shortened: as §1

morningglory = test: Test B pre/postemergence morningglory; format: in vivo, Ipomoea hederacea
Procedure, shortened: as §1

corn = test: Test B pre/postemergence corn; format: in vivo, Zea mays
Procedure, shortened: as §1

soybean = test: Test B pre/postemergence soybean; format: in vivo, Glycine max
Procedure, shortened: as §1

bamyardgrass = test: Test B flood test barnyardgrass; format: in vivo, Echinochloa crus-galli
Procedure, shortened: as §2

blackgrass = test: Test B pre/postemergence blackgrass; format: in vivo, Alopecurus myosuroides
Procedure, shortened: as §1

surinam grass = test: Test B pre/postemergence surinam grass; format: in vivo, Brachiaria decumbens
Procedure, shortened: as §1

duck salad = test: Test B flood test duck salad; format: in vivo, Heteranthera limosa
Procedure, shortened: as §2

purple nutsedge = test: Test B pre/postemergence purple nutsedge; format: in vivo, Cyperus rotundus
Procedure, shortened: as §1

[1] = Postemergence, Rate 62 g/ha, scale 0 to 10, 0 is no effect, 10 is complete control
[2] = Postemergence, Rate 125 g/ha, scale of 0 to 10 where 0 is no effect and 10 is complete control
[3] = Postemergence, Rate 250 g/ha, scale of 0 to 10, 0 is no effect, 10 is complete control
[4] = Preemergence, Rate 62 g/ha, scale 0 to 10 (0 no effect, 10 complete control)
[5] = Preemergence, Rate 125 g/ha, scale of 0 to 10 where 0 is no effect and 10 is complete control
[6] = Preemergence, Rate 250 g/ha, scale 0 to 10 (0 no effect, 10 complete control)
[7] = Preemergence, Rate 500 g/ha, scale of 0 to 10 where 0 is no effect and 10 is complete control
[8] = Rate 62 g/ha, flood test species, Pre-emergence, visual evaluation after twelve to sixteen days
[9] = Rate 125 g/ha, under heading Pre-emergence, flood test species, visual evaluation after twelve to sixteen days
[10] = Rate 250 g/ha, Pre-emergence (flood test species), scale 0 to 10, 0 is no effect, 10 is complete control
[11] = Rate 500 g/ha, Pre-emergence section of Table B, 0 to 10 scale (0 no effect, 10 complete control)
[12] = Postemergence, Rate 500 g/ha, scale of 0 to 10 where 0 is no effect and 10 is complete control

## COCCn1c(=O)on(C(=O)N(c2ccc(F)cc2F)C(C)C)c1=O [Compound 628]
Sugar beet; [1]
  Plant response rating, Sugarbeets: 0
Sugar beet; [2]
  Plant response rating, Sugarbeets: 0
Sugar beet; [3]
  Sugarbeets plant response rating: 3
Sugar beet; [4]
  Sugarbeets plant response rating: 3
Sugar beet; [5]
  Sugarbeets plant response rating: 4
Sugar beet; [6]
  Plant response rating, Sugarbeets: 7
Sugar beet; [7]
  Plant response rating, Sugarbeets: 7
Wild oat; [1]
  Plant response rating, Wild oats: 0
Wild oat; [2]
  Plant response rating, Wild oats: 3
Wild oat; [3]
  Wild oats plant response rating: 5
Wild oat; [5]
  Wild oats plant response rating: 2
Wild oat; [6]
  Plant response rating, Wild oats: 8
Wild oat; [7]
  Plant response rating, Wild oats: 10
rice; [8]
  Plant response rating, Rice (0 to 10 scale, 0 is no effect, 10 is complete control): 0
rice; [9]
  Rice plant response rating (0 to 10 scale, 0 is no effect, 10 is complete control): 0
rice; [10]
  Rice plant response rating: 0
rice; [11]
  Rice plant response rating: 0
Smallflower flatsedge; [8]
  Plant response rating, S. Flatsedge (0 to 10 scale, 0 is no effect, 10 is complete control): 0
Smallflower flatsedge; [9]
  S. Flatsedge plant response rating (0 to 10 scale, 0 is no effect, 10 is complete control): 0
Smallflower flatsedge; [10]
  S. Flatsedge plant response rating: 0
Smallflower flatsedge; [11]
  S. Flatsedge plant response rating: 0
rape; [1]
  Plant response rating, Rape: 0
rape; [2]
  Plant response rating, Rape: 0
rape; [3]
  Rape plant response rating: 3
rape; [12]
  Plant response rating, Rape: 6
rape; [4]
  Rape plant response rating: 0
rape; [5]
  Rape plant response rating: 2
rape; [6]
  Plant response rating, Rape: 4
rape; [7]
  Plant response rating, Rape: 9
pigweed; [1]
  Plant response rating, Redroot pigweed: 3
pigweed; [2]
  Plant response rating, Redroot pigweed: 3
pigweed; [3]
  Redroot pigweed plant response rating: 7
pigweed; [4]
  Redroot pigweed plant response rating: 8
pigweed; [5]
  Redroot pigweed plant response rating: 9
pigweed; [6]
  Plant response rating, Redroot pigweed: 9
pigweed; [7]
  Plant response rating, Redroot pigweed: 10
velvetleaf; [1]
  Plant response rating, Velvetleaf: 6
velvetleaf; [2]
  Plant response rating, Velvetleaf: 6
velvetleaf; [3]
  Velvetleaf plant response rating: 8
velvetleaf; [4]
  Velvetleaf plant response rating: 7
velvetleaf; [6]
  Plant response rating, Velvetleaf: 9
velvetleaf; [7]
  Plant response rating, Velvetleaf: 10
Giant foxtail; [1]
  Plant response rating, Giant foxtail: 8
Giant foxtail; [2]
  Plant response rating, Giant foxtail: 9
Giant foxtail; [3]
  Giant foxtail plant response rating: 9
Giant foxtail; [12]
  Plant response rating, Giant foxtail: 9
Giant foxtail; [4]
  Giant foxtail plant response rating: 10
Giant foxtail; [5]
  Giant foxtail plant response rating: 10
Giant foxtail; [6]
  Plant response rating, Giant foxtail: 10
Giant foxtail; [7]
  Plant response rating, Giant foxtail: 10
crabgrass; [1]
  Plant response rating, Crabgrass: 8
crabgrass; [3]
  Crabgrass plant response rating: 9
crabgrass; [12]
  Plant response rating, Crabgrass: 9
crabgrass; [4]
  Crabgrass plant response rating: 8
crabgrass; [5]
  Crabgrass plant response rating: 8
crabgrass; [6]
  Plant response rating, Crabgrass: 9
crabgrass; [7]
  Plant response rating, Crabgrass: 10
cocklebur; [1]
  Plant response rating, Cocklebur: 0
cocklebur; [2]
  Plant response rating, Cocklebur: 1
cocklebur; [3]
  Cocklebur plant response rating: 6
cocklebur; [12]
  Plant response rating, Cocklebur: 7
cocklebur; [4]
  Cocklebur plant response rating: 2
cocklebur; [5]
  Cocklebur plant response rating: 3
cocklebur; [6]
  Plant response rating, Cocklebur: 4
cocklebur; [7]
  Plant response rating, Cocklebur: 7
wheat; [1]
  Plant response rating, Wheat: 0
wheat; [2]
  Plant response rating, Wheat: 4
wheat; [3]
  Wheat plant response rating: 7
wheat; [4]
  Wheat plant response rating: 3
wheat; [5]
  Wheat plant response rating: 3
wheat; [6]
  Plant response rating, Wheat: 7
wheat; [7]
  Plant response rating, Wheat: 10
bedstraw; [1]
  Plant response rating, Bedstraw: 0
bedstraw; [4]
  Bedstraw plant response rating: 6
bedstraw; [5]
  Bedstraw plant response rating: 7
bedstraw; [6]
  Plant response rating, Bedstraw: 10
bedstraw; [7]
  Plant response rating, Bedstraw: 10
morningglory; [1]
  Plant response rating, Morningglory: 1
morningglory; [2]
  Plant response rating, Morningglory: 2
morningglory; [3]
  Morningglory plant response rating: 2
morningglory; [12]
  Plant response rating, Morningglory: 2
morningglory; [4]
  Morningglory plant response rating: 5
morningglory; [5]
  Morningglory plant response rating: 5
morningglory; [6]
  Plant response rating, Morningglory: 5
morningglory; [7]
  Plant response rating, Morningglory: 7
corn; [1]
  Plant response rating, Corn: 0
corn; [2]
  Plant response rating, Corn: 6
corn; [3]
  Corn plant response rating: 7
corn; [12]
  Plant response rating, Corn: 7
corn; [4]
  Corn plant response rating: 3
corn; [5]
  Corn plant response rating: 6
corn; [6]
  Plant response rating, Corn: 7
corn; [7]
  Plant response rating, Corn: 9
soybean; [1]
  Plant response rating, Soybean: 4
soybean; [4]
  Soybean plant response rating: 0
soybean; [5]
  Soybean plant response rating: 0
soybean; [6]
  Plant response rating, Soybean: 4
soybean; [7]
  Plant response rating, Soybean: 7
bamyardgrass; [8]
  Plant response rating, Barnyardgrass (0 to 10 scale, 0 is no effect, 10 is complete control): 0
bamyardgrass; [9]
  Barnyardgrass plant response rating (0 to 10 scale, 0 is no effect, 10 is complete control): 0
bamyardgrass; [10]
  Barnyardgrass plant response rating: 0
bamyardgrass; [11]
  Barnyardgrass plant response rating: 0
blackgrass; [1]
  Plant response rating, Blackgrass: 6
blackgrass; [2]
  Plant response rating, Blackgrass: 8
blackgrass; [3]
  Blackgrass plant response rating: 9
blackgrass; [12]
  Plant response rating, Blackgrass: 9
blackgrass; [4]
  Blackgrass plant response rating: 6
blackgrass; [5]
  Blackgrass plant response rating: 9
blackgrass; [6]
  Plant response rating, Blackgrass: 10
blackgrass; [7]
  Plant response rating, Blackgrass: 10
Surinam grass; [1]
  Plant response rating, B. signalgrass: 2
Surinam grass; [2]
  Plant response rating, B. signalgrass: 8
Surinam grass; [3]
  B. signalgrass plant response rating: 8
Surinam grass; [12]
  Plant response rating, B. signalgrass: 8
Surinam grass; [4]
  B. signalgrass plant response rating: 3
Surinam grass; [5]
  B. signalgrass plant response rating: 7
Surinam grass; [6]
  Plant response rating, B. signalgrass: 8
Surinam grass; [7]
  Plant response rating, B. signalgrass: 10
Duck salad; [8]
  Plant response rating, Ducksalad (0 to 10 scale, 0 is no effect, 10 is complete control): 0
Duck salad; [9]
  Ducksalad plant response rating (0 to 10 scale, 0 is no effect, 10 is complete control): 0
Duck salad; [10]
  Ducksalad plant response rating: 0
Duck salad; [11]
  Ducksalad plant response rating: 0
Purple nutsedge; [1]
  Plant response rating, Nutsedge: 0
Purple nutsedge; [4]
  Nutsedge plant response rating: 3
Purple nutsedge; [5]
  Nutsedge plant response rating: 6
Purple nutsedge; [6]
  Plant response rating, Nutsedge: 6
Purple nutsedge; [7]
  Plant response rating, Nutsedge: 9
